Values of other authors, collected in article PMC8158804 (ACS Omega, 2021).

Conditions: critical aggregation concentration, fluorimetry, pure water

| Substance | CAC (−log M) |
| --- | --- |
| AcGAAVILRRNH2 | 1.52 −log M |
| AcIIIKGVPGVGKNH2 [IK-K11] | 2.58 −log M |
| AcIIIKGVPGVGVPGVGKNH2 [IK-K16] | 3.03 −log M |
| V6K2GRGDS | 4.83 −log M |

Further lines, results first:

| CAC (−log M) | Substance |
| --- | --- |
| 2.10 −log M | AcGVPGVGKKNH2 [KK8] |
| 2.66 −log M | AcIIIGVPGVGKKNH2 [IKK11] |
| 3.13 −log M | AcIIIGVPGVGVPGVGKKNH2 [IKK16] |
| 2.10 −log M | AcKGVPGVGKNH2 [K-K8] |
| 4.40 −log M | RFRF [[RF]2] |
| 2.64 −log M | RFRFRF [[RF]3] |
| 3.52 −log M | RFRFRFRF [[RF]4] |
| 4.70 −log M | RFRFRFRFRF [[RF]5] |

Conditions: critical aggregation concentration, conductivity, pure water

| CAC (−log M) | Substance |
| --- | --- |
| 3.15 −log M | Ac-GAVILEE |
| 3.10 −log M | Ac-GAVILEE-NH2 |
| 2.99 −log M | AcLIIKNH2 [LI2K] |
